{"source": "patent US7820379B2", "about": "“Process for high throughput screening of CpG-based immuno-agonist/antagonist” (Coley Pharmaceutical GmbH, priority 2000, dated 2010)"}
{"target": "T1, murine TLR9 (Mus musculus, UniProt Q9EQU3, L378S/Q579H/T325N/T573A/T867A)", "T1 construct": "additional primers were designed for amplification of the complete mouse TLR9 cDNA; expressed in transfected cells", "T1 sequence (Q9EQU3 26-1032 T325N/L378S/T573A/Q579H/T867A)": "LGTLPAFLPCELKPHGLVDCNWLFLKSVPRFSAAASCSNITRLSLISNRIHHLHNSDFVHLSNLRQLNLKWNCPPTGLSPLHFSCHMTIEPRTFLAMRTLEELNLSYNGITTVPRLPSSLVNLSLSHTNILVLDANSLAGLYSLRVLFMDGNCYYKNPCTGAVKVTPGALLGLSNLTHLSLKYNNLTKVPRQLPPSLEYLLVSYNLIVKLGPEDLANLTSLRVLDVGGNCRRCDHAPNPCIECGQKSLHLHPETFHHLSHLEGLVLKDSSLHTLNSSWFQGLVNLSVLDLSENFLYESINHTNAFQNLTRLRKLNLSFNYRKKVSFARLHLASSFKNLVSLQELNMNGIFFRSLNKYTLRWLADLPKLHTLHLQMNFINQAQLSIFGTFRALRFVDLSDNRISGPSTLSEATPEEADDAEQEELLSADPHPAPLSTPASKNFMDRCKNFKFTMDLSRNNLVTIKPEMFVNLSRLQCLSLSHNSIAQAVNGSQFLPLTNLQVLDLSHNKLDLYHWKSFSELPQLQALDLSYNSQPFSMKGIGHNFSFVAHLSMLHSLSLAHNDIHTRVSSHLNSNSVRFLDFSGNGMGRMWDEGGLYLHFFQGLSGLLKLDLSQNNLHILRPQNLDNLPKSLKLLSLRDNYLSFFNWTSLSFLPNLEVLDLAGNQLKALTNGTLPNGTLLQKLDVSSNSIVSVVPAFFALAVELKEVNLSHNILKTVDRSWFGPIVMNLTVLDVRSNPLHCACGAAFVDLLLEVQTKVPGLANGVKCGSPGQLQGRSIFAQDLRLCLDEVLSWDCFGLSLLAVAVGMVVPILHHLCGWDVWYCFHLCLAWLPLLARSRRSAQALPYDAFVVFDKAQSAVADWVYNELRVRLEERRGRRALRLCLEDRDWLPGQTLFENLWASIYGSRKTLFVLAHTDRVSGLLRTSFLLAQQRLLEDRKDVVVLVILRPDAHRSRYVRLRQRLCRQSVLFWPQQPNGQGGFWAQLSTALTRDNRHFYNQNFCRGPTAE", "assay": "NF-κB-luciferase activation in 293 cells transfected with murine TLR9 (293-mTLR9-luc)", "format": "cell-based", "conditions": "CpG-ODN 1668 compared with CpG-ODN 2006", "text": "(§1) Human fibroblast 293 cells were transiently transfected with mTLR9 and the NF-κB-luc construct (FIG. 2). Similar data was obtained for IL-8 production (not shown). Thus expression of TLR9 (human or mouse) in 293 cells results in a gain of function for CpG-DNA stimulation similar to hTLR4 reconstitution of LPS responses.\n(§2) To generate stable clones expressing human TLR9, murine TLR9, or either TLR9 with the NF-κB-luc reporter plasmid, 293 cells were transfected in 10 cm plates (2×10^6 cells/plate) with 16 μg of DNA and selected with 0.7 mg/ml G418 (PAA Laboratories GmbH, Cölbe, Germany). The clones were also screened for IL-8 production or NF-κB-luciferase activity after stimulation with ODN. Four different types of clones were generated. • 293-hTLR9-luc: expressing human TLR9 and 6-fold NF-κB-luciferase reporter • 293-mTLR9-luc: expressing murine TLR9 and 6-fold NF-κB-luciferase reporter • 293-hTLR9: expressing human TLR9 • 293-mTLR9: expressing murine TLR9\n(§3) Similar results were obtained utilizing IL-8 production with the stable clone 293-hTLR9. 293-mTLR9-luc were also stimulated with CpG-ODN (1668, 2 μM; […], SEQ ID NO:84), GpC-ODN (1668-GC, 2 μM; […], SEQ ID NO:85), Me-CpG-ODN (1668 methylated, 2 μM; TCCATGAZGTTCCTGATGCT, Z=5-methylcytidine, SEQ ID NO:207), LPS (100 ng/ml) or media, as measured by monitoring NF-κB activation (FIG. 5). Similar results were obtained utilizing IL-8 production with the stable clone 293-mTLR9. Results are representative of at least two independent experiments. […] These cells can be used for screening of optimal ligands for innate immune responses driven by TLR9 in multiple species.\n(§4) Because stable TLR9 transfectants mirrored primary cell responsiveness to CpG-DNA (FIGS. 4 and 5), it was hypothesized that stable transfectants could potentially discern species-specific CpG-motifs through TLR9 receptors. Therefore 293-hTLR9-luc (expressing human TLR9 and 6-fold NF-κB-luc reporter), 293-mTLR9-luc (expressing murine TLR9 and 6-fold NF-κB-luc reporter), 293-hTLR9 (expressing human TLR9) and 293-mTLR9 (expressing murine TLR9) clones were tested for CpG-DNA motif responsiveness. […] Depicted are both NF-κB-driven luciferase and IL-8 production as readout. […] After lysis of the cells luciferase can be detected photometrically based on an enzymatic reaction by luciferase which creates photons. IL-8 production was monitored using enzyme-linked immunosorbent assay (ELISA). […] Results shown in FIG. 11 are representative of three independent experiments. Strikingly, CpG-motif sequence specificity was conferred in a species-specific manner by TLR9. Additionally, the half-maximal concentration for either 2006 or 1668 appears nearly the same as those determined on primary cells (compare FIG. 10 and FIG. 11).\n(§5) Although 2006 and 1668 are discussed in terms of CpG-motif differences, they are very different in several aspects (see Table 5 for comparison). The lengths are different, 24 versus 20 nucleotides, and 2006 has four CG dinucleotides compared to one in 1668. Additional differences are the CG position relative to the 5′ and 3′ ends and also 5′ sequence differences. In order to determine if motif specificity is a quality of the motif and not the global sequence environment, for this experiment several sequences were produced holding these variables constant. As a starting point, the 1668 sequence was modified by converting the central C to T and the distal TG to CG, thereby creating a second CG in the resulting sequence 5000 (SEQ ID NO:130, Table 5). Then point nucleotide changes were made, progressing toward a 2006-like sequence, 5007 (SEQ ID NO:98). The ODN 5002 (SEQ ID NO:132) is most like 1668 with the exception that C's at positions 12 and 19 have been converted to T's. […]"}
{"sequence": "TCCATGACGTTCCTGATGCT (listed as DNA, chemistry not fully specified) [ODN 1668]", "murine TLR9 signaling response": "significantly stronger"}
{"target": "T1, murine TLR9", "assay": "NF-κB-luciferase activation in 293 cells transfected with murine TLR9 (293-mTLR9-luc)", "format": "cell-based", "conditions": "ODN concentration of half-maximal activation; 293-mTLR9-luc cells, NF-κB-driven luciferase readout, 12 hours; read-out: 293-mTLR9 Kac", "text": "as §1, §2, §3, §4, §5", "units": {"EC50": "nM"}}
{"sequence": "TCCATGTCGTTTTTGTCGTT (listed as DNA, chemistry not fully specified) [ODN 5007]", "EC50": 1000}
{"sequence": "TCCATGAGCTTCCTGATGCT (listed as DNA, chemistry not fully specified) [ODN 1668-GC]", "EC50": "> 10000"}
{"sequence": "TCCATGACGTTCTTGACGCT (listed as DNA, chemistry not fully specified) [ODN 5000]", "EC50": 82}
{"sequence": "TCGTCGTTTTGTCGTTTTGTCGTT [ODN 2006]", "EC50": "> 10000"}
{"sequence": "TGCTGCTTTTGTGCTTTTGTGCTT (listed as DNA, chemistry not fully specified) [ODN 2006-GC]", "EC50": "> 10000"}
{"sequence": "TCCATGACGTTCTTGACGTT (listed as DNA, chemistry not fully specified) [ODN 5001]", "EC50": 55}
{"sequence": "TCCATGTCGTTCTTGATGTT (listed as DNA, chemistry not fully specified) [ODN 5004]", "EC50": 400}
{"sequence": "TCCATGTCGTTTTTGTTGTT (listed as DNA, chemistry not fully specified) [ODN 5006]", "EC50": 650}
{"sequence": "TCCATGTCGTTTTTGATGTT (listed as DNA, chemistry not fully specified) [ODN 5005]", "EC50": 2000}
{"sequence": "TCCATGACGTTCCTGATGCT (listed as DNA, chemistry not fully specified) [ODN 1668]", "EC50": 70}
